Reference: US7238685B2, “Benzo-fused heterocycles as endothelin antagonists” (Actelion Pharmaceuticals Ltd., priority 2001, dated 2007)
Where two headings read alike, the source gives them in different places.

Columns and labels:
[1] = target: T1, human recombinant ETA receptors (Homo sapiens, UniProt P25101); assay: Inhibition of endothelin binding to membranes from CHO cells carrying human ET receptors (ETA)
T1 construct: expressed in transfected cells; host or cells: CHO cells (microsomal membranes)
T1 sequence (P25101 21-427): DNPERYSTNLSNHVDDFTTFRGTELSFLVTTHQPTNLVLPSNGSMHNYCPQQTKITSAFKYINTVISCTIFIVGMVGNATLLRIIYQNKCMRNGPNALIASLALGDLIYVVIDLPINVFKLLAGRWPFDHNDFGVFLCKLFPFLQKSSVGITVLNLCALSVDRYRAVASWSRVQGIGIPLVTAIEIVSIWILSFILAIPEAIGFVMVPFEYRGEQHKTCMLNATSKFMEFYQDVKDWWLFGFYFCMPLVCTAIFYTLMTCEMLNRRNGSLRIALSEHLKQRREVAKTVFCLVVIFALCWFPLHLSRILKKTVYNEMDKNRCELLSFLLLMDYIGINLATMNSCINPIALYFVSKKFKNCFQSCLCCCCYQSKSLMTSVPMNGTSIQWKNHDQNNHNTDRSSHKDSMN

[2] = target: T2, human recombinant ETB receptors (Homo sapiens, UniProt P24530); assay: Inhibition of endothelin binding to membranes from CHO cells carrying human ET receptors (ETB)
T2 construct: expressed in transfected cells; host or cells: CHO cells (microsomal membranes)
T2 sequence (P24530 27-442): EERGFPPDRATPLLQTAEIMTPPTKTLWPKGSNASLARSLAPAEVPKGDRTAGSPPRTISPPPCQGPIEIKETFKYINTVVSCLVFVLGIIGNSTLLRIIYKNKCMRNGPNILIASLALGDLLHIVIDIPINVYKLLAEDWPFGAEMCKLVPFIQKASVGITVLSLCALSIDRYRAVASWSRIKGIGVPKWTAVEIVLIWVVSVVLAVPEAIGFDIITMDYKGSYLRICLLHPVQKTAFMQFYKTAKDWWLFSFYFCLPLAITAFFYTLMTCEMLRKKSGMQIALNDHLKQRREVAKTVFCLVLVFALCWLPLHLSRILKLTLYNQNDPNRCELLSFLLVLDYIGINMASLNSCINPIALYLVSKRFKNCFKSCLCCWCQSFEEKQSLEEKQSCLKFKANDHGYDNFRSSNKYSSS

[3] = target: T3, rat aortic rings (ETA receptors) (Rattus norvegicus, UniProt P26684); assay: Inhibition of endothelin-1-induced contractions on isolated rat aortic rings; conditions: read-out: pA2 (aortic rings) (converted)
T3 construct: from tissue; host or cells: thoracic aorta rings of adult Wistar rats, endothelium removed
T3 sequence (P26684 21-426): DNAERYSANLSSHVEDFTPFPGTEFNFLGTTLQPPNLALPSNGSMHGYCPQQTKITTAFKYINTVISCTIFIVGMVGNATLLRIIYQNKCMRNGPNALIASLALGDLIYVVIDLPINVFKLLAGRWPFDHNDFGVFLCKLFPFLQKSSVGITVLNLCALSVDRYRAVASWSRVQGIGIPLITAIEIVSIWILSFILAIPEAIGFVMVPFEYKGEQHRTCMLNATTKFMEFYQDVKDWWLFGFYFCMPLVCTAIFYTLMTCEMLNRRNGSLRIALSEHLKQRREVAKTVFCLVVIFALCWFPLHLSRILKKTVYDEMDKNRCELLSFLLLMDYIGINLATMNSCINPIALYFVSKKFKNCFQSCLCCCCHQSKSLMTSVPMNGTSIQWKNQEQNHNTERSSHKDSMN

IC50 ([1]; read-out: IC50 ETA) [nM] | IC50 ([2]; read-out: IC50 ETB) [nM] | Kb [3] [nM] | SMILES | IC50 [1] [nM] | IC50 [2] [nM]
29 | 701 |  | COc1cc(OC)nc(O[C@H](C(=O)O)[C@@]2(c3ccccc3)NCC(=O)N(C)c3ccccc32)n1 (racemic) [Example 39, (±)-(S*)-((5S*)-1-methyl-2-oxo-5-phenyl-2,3,4,5-tetrahydro-1H-benzo[e][1,4]di-azepin-5-yl)-(4,6-dimethoxy-pyrimidin-2-yloxy)-acetic acid] |  | 
8 | 52 |  | COc1cc(CN2C(=O)CN[C@](c3ccccc3)([C@H](Oc3nc(OC)cc(OC)n3)C(=O)O)c3ccccc32)cc(OC)c1 (racemic) [Example 40, (±)-(S*)-[(5S*)-1-(3,5-dimethoxy-benzyl)-2-oxo-5-phenyl-2,3,4,5-tetrahydro-1H-benzo[e][1,4]diazepin-5-yl]-(4,6-dimethoxy-pyrimidin-2-yloxy)-acetic acid] |  | 
17 | 240 |  | Cc1cc(C)nc(O[C@H](C(=O)O)[C@@]2(c3ccccc3)NCC(=O)N(C)c3ccccc32)n1 (racemic) [Example 49, (±)-(S*)-(4,6-dimethyl-pyrimidin-2-yloxy)-((5S*)-1-methyl-2-oxo-5-phenyl-2,3,4,5-tetrahydro-1H-benzo[e][1,4]diazepin-5-yl)-acetic acid] |  | 
12 | 507 |  | Cc1cc(C)nc(O[C@H](C(=O)O)[C@@]2(c3ccccc3)NCC(=O)N(CC(=O)O)c3ccccc32)n1 (racemic) [Example 50, (±)-(S*)-((5S*)-1-Carboxymethyl-2-oxo-5-phenyl-2,3,4,5-tetrahydro-1H-benzo[e][1,4]diazepin-5-yl)-(4,6-dimethyl-pyrimidin-2-yloxy)-acetoc acid] |  | 
7 | 26 | 40.7 | COc1cc(CN2C(=O)CN[C@](c3ccccc3)([C@H](Oc3nc(C)cc(C)n3)C(=O)O)c3ccccc32)cc(OC)c1 (racemic) [Example 51, (±)-(S*)-[(5S*)-1-(3,5-Dimethoxy-benzyl)-2-oxo-5-phenyl-2,3,4,5-tetra-hydro-1H-benzo[e][1,4]diazepin-5-yl]-(4,6-dimethyl-pyrimidin-2-yloxy)-acetic acid] |  | 
2 | 29 |  | COC(=O)c1ccc(CN2C(=O)CN[C@](c3ccccc3)([C@H](Oc3nc(C)cc(C)n3)C(=O)O)c3ccccc32)cc1 (racemic) [Example 58, (±)-4-{(5S*)-5-[(S*)-Carboxy-(4,6-dimethyl-pyrimidin-2-yloxy)-methyl]-2-oxo-5-phenyl-2,3,4,5-tetrahydro-benzo[e][1,4]diazepin-1-ylmethyl}-benzoic acid methyl ester] |  | 
 |  | 105 | COc1cc(OC)nc(O[C@H](C(=O)O)[C@@]2(c3ccccc3)NCC(=O)N(C)c3ccc(Cl)cc32)n1 (racemic) [Example 166, (±)-(1S*)-((5S*)-7-Chloro-1-methyl-2-oxo-5-phenyl-2,3,4,5-tetrahydro-1H-benzo[e][1,4]diazepin-5-yl)-(4,6-dimethoxy-pyrimidin-2-yloxy)-acetic acid] |  | 
36 | 947 |  | COc1cc(CN2C(=O)CN[C@](c3ccccc3)([C@H](Oc3nc(OC)cc(OC)n3)C(=O)O)c3cc(Cl)ccc32)cc(OC)c1 (racemic) [Example 167, (±)-(1S*)-[(5S*)-7-Chloro-1-(3,5-dimethoxy-benzyl)-2-oxo-5-phenyl-2,3,4,5-tetrahydro-1H-benzo[e][1,4]diazepin-5-yl]-(4,6-dimethoxy-pyrimidin-2-yloxy)-acetic acid] |  | 
5 | 39 |  | COc1ccc(CN2C(=O)CN[C@](c3ccc(F)c(C)c3)([C@H](Oc3nc(C)cc(C)n3)C(=O)O)c3ccccc32)cc1 (racemic) [Example 218, (±)-(S*)-(4,6-Dimethyl-pyrimidin-2-yloxy)-[(5S*)-5-(4-fluoro-3-methyl-phenyl)-1-(4-methoxy-benzyl)-2-oxo-2,3,4,5-tetrahydro-1H-benzo[e][1,4]diazepin-5-yl]-acetic acid] |  | 

More lines, now with the values behind:

SMILES | IC50 ([1]; read-out: IC50 ETA) [nM] | IC50 ([2]; read-out: IC50 ETB) [nM] | Kb [3] [nM] | IC50 [1] [nM] | IC50 [2] [nM]
Cc1cc(C)nc(O[C@H](C(=O)O)[C@@]2(c3ccccc3)NCc3nnc(CC(=O)O)n3-c3ccccc32)n1 (racemic) [Example 27, (±)-(S*)-((6S*)-1-carboxymethyl-6-phenyl-5,6-dihydro-4H-2,3,5,10b-tetraaza-benzo[e]azulen-6-yl)-(4,6-dimethyl-pyrimidin-2-yloxy)-acetic acid] |  |  |  | 13 | 126
Cc1cc(C)nc(O[C@H](C(=O)O)[C@@]2(c3ccccc3)NCC(=O)N(CCO)c3ccccc32)n1 (racemic) [Example 56, (±)-(S*)-(4,6-Dimethyl-pyrimidin-2-yloxy)-[(5S*)-1-(2-hydroxy-ethyl)-2-oxo-5-phenyl-2,3,4,5-tetrahydro-1H-benzo[e][1,4]diazepin-5-yl]-acetic acid] |  |  |  | 4 | 83
Cc1cc(C)nc(O[C@H](C(=O)O)[C@@]2(c3ccccc3)NCC(=O)N(CCc3cn(C)c4ccccc34)c3ccccc32)n1 (racemic) [Example 68] | 1 | 4 |  |  | 
Cc1cc(C)nc(O[C@H](C(=O)O)[C@@]2(c3ccccc3)NCC(=O)N(CCc3ccccc3)c3ccccc32)n1 (racemic) [Example 78] | 3 | 23 |  |  | 
Cc1cc(C)c(CN2C(=O)CN[C@](c3ccccc3)([C@H](Oc3nc(C)cc(C)n3)C(=O)O)c3ccccc32)c(C)c1 (racemic) [Example 111] | 3 | 10 |  |  | 
Cc1cc(C)nc(O[C@H](C(=O)O)[C@@]2(c3ccccc3)NCC(=O)N(c3ccccc3)c3ccccc32)n1 (racemic) [Example 117, (±)-(S*)-(4,6-dimethyl-pyrimidin-2-yloxy)-[(5S*)-2-oxo-1,5-diphenyl-2,3,4,5-tetrahydro-1H-benzo[e][1,4]diazepin-5-yl]-acetic acid] | 61 | 749 |  |  | 
Cc1cc(C)nc(O[C@H](C(=O)O)[C@]2(c3ccccc3)c3ccccc3N(Cc3c(F)cc(F)cc3F)C(=O)CN2C)n1 (racemic) [Example 129, (±)-(S*)-(4,6-Dimethyl-pyrimidin-2-yloxy)-[(5S*)-4-methyl-2-oxo-5-phenyl-1-(2,4,6-trifluoro-benzyl)-2,3,4,5-tetrahydro-1H-benzo[e][1,4]diazepin-5-yl]-acetic acid] | 6 | 353 |  |  | 
Cc1cc(C)nc(O[C@H](C(=O)O)[C@@]2(c3ccccc3)NCC(=O)N(C)c3ccc(Cl)cc32)n1 (racemic) [Example 170, (±)-(1S*)-((5S*)-7-Chloro-1-methyl-2-oxo-5-phenyl-2,3,4,5-tetra-hydro-1H-benzo[e][1,4]diazepin-5-yl)-(4,6-dimethyl-pyrimidin-2-yloxy)-acetic acid] | 15 | 368 |  |  | 
Cc1cccc([C@]2([C@H](Oc3nc(C)cc(C)n3)C(=O)O)NCC(=O)N(C)c3ccccc32)c1 (racemic) [Example 187, (±)-(S*)-(4,6-Dimethyl-pyrimidin-2-yloxy)-[(5S*)-1-methyl-2-oxo-5-m-tolyl-2,3,4,5-tetrahydro-1H-benzo[e][1,4]diazepin-5-yl]-acetic acid] | 18 | 180 |  |  | 
Cc1cc(C)nc(O[C@H](C(=O)O)[C@@]2(c3cccc(-c4ccccc4)c3)NCC(=O)N(Cc3c(F)ccc(F)c3F)c3ccccc32)n1 (racemic) [Example 213] | 3 | 29 |  |  | 
CCCCc1ccc(CN2C(=O)CN[C@](c3cccc(CCCC)c3)([C@H](Oc3nc(C)cc(C)n3)C(=O)O)c3ccccc32)cc1 (racemic) [Example 223] | 7 | 12 |  |  | 
COC(=O)[C@@H](c1ccccc1)N1C(=O)CN[C@](c2ccccc2)([C@H](Oc2nc(C)cc(C)n2)C(=O)O)c2ccccc21 (relative stereo) [Example 52, (±)-(S*)-(4,6-Dimethyl-pyrimidin-2-yloxy)-[(5S*)-1-((R/S)-methoxycarbonyl-phenyl-methyl)-2-oxo-5-phenyl-2,3,4,5-tetrahydro-1H-benzo[e][1,4]diazepin-5-yl]-acetic acid] | 11 | 23 |  |  | 
